Source: US20220062273A1, “CONJUGATES OF PATTERN RECOGNITION RECEPTOR AGONISTS” (Ascendis Pharma Oncology Division A/S, priority 2019, published 2022)

What was measured:
Type in all cases: in vivo, BALB/C mice
[1] = test system: Ly-6C+ T cells of CD8+ T cells; assay: Flow cytometric profiling of tumor draining lymph nodes; conditions: tumor draining lymph node, 7 days after randomization
Procedure: (§1) Hydrogels were administered as suspension in PTP buffer. Some cohorts were further treated with 20 μg human IL-2 (Peprotech, Rocky Hill, N.J.), intraperitoneally (I.P.), twice a day for 5 days. Mice were sacrificed 7 days after randomization (DO). Following sacrifice, tumor draining lymph nodes were isolated from both flanks and were dissociated mechanically to generate a single cell suspension at a cell concentration of 1×10^6 cells per sample. Cell suspensions were centrifuged at 300 g for 5 minutes. Supernatants were discarded and cells were resuspended in FACS buffer with 1 μg/ml Fc-Block and incubated at 4° C. for 10 minutes in the dark. Surface marker antibody mixtures (antibody concentration: 10 μg/mL) in FACS buffer were added to each sample and samples were incubated in the dark at 4° C. for 30 minutes. Cells were centrifuged at 300 g for 5 minutes and supernatants were discarded. Cells were washed and then resuspended with FACS buffer before cytometer collection.
(§2) After collection, FACS data was analyzed using FlowJo Version 10.6.1. Compensation was digitally adjusted using single antibody-stained beads. Samples with less than 90% viability, as determined by LiveDead cell staining, were excluded from the analysis. Cells were defined using the following gating strategy: • 1) Ly-6C^+ antigen presenting cells: FSC-H/FSC-A Singlets/LiveDead^−/CD45^+/CD3^−/CD335^−/Ly-6C^+ • 2) Ly-6C^+ MHCII^+ antigen presenting cells: FSC-H/FSC-A Singlets/LiveDead^−/CD45^+/CD3^−/CD335^−/Ly-6C^+/IA/IE (MHCII)^+ • 3) CD8^+ T cells: FSC-H/FSC-A Singlets/LiveDead^−/CD45^+/CD3^+/CD8 single positive 4) Ly-6C^+ CD8^+ T cells: FSC-H/FSC-A Singlets/LiveDead^−/CD45^+/CD3^+/CD8 single positive/Ly-6C^+

[2] = test system: CD8+ T cells of CD3+ T cells; assay: as above; conditions: tumor draining lymph node, 7 days after randomization
Procedure: as §1, §2

[3] = test system: peripheral blood mononuclear cells (PBMC); assay: PBMC gene expression (qPCR), 6 hours post-treatment
Procedure: Hydrogels were administered as suspensions in PTP buffer. […] Tumors were excised, weighed and snap frozen. […] For PBMC isolations, approximately 600 μl of whole blood was collected via cardiac puncture. The collected whole blood from each individual mouse was diluted with a 1:1 ratio of pre-warmed PBS supplemented with 2% Fetal Bovine Serum (FBS). Then an equal volume of Histopaque-1083 was added to a new sterile 15 mL conical tube, where the diluted whole blood was layered over the Histopaque-1083. The mixture was then centrifuged at 400 g for 30 minutes. The top plasma layer was discarded, and the white translucent interlayer (mononuclear cells) was carefully transferred to a new sterile centrifuge tube. The mononuclear cells were then washed with PBS supplemented with 2% FBS and then were spun down at 250 g for 10 minutes. […] RNA concentrations were measured using a NanoDrop (ThermoFisher) and then adjusted to […] with RNase-free water. RNA quality was assessed using a NanoDrop (ThermoFisher). […] 200 ng of cDNA was used for quantitative PCR using the RT^2 SYBR Green ROX qPCR Master mix (2X) kit (QIAGEN) following manufacturer's recommendations. […] For each gene, 3 technical replicates were analyzed per biological replicate. Undetermined technical replicate CT values were recorded as zero ΔCT values. 4-5 biological replicates were assessed in total.

SMILES: CCOCc1nc2c(N)nc3ccccc3c2n1CC(C)(C)O [Compound 4, Resiquimod]
- Frequency of Ly-6C+ T cells of CD8+ T cells, Mean ([1]; injected right flank): 53.7%
- Frequency of Ly-6C+ T cells of CD8+ T cells, Mean ([1]; uninjected left flank): 48%
- Frequency of CD8+ T cells of CD3+ T cells, Mean ([2]; injected right flank): 29.23%
- Frequency of CD8+ T cells of CD3+ T cells, Mean ([2]; uninjected left flank): 29%
- Il1a Mean (2^ΔΔCT) [3]: 0.41
